The source of these data is ChEMBL document CHEMBL1153675, “Synthesis and opioid binding properties of 2-chloroacrylamido derivatives of 7,8-dihydromorphinans” (Bioorg Med Chem Lett, 1996).

What is called IC50 is the concentration that gives 50% inhibition. A lower IC50 goes with greater potency in that assay.

The target in the experiment is Mu-type opioid receptor (Bos taurus, UniProt P79350). Briefly: Compound was tested for Inhibition of [3H]DAMGO (0.25 nM) binding to mu receptor from bovine striatal membranes.
Sequence of Mu-type opioid receptor (P79350 whole entry): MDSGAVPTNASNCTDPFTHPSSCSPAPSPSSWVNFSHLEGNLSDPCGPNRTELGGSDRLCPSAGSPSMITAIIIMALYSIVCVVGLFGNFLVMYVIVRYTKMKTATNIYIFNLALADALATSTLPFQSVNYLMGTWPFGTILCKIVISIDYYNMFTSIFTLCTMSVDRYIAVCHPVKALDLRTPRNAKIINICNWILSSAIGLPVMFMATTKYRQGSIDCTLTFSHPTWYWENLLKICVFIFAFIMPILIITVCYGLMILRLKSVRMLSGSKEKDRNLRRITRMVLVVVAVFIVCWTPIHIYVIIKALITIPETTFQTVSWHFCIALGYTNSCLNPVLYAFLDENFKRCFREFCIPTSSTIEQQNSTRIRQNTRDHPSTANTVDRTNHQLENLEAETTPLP
Molecule `C=C(Cl)C(=O)N[C@@]12CCC(=O)[C@@H]3Oc4c(O)ccc5c4C31CCN(CC1CC1)C2C5` (some centres undefined) came in with an IC50 of 23.5 nM.

In turn, `C=C(Cl)C(=O)N[C@@H]1CCC2C3Cc4ccc(O)c5c4C2(CCN3CC2CC2)[C@H]1O5` (some centres undefined) returned a half-maximal inhibitory concentration (IC50) of 0.21 nM.

For the molecule `C=C(Cl)C(=O)N[C@@]12CCC(=O)[C@@H]3Oc4c(O)ccc5c4C31CCN(C)C2C5` (some centres undefined), the IC50 was found to be 5.8 nM.

On to `C=C(Cl)C(=O)N[C@@H]1CCC2C3Cc4ccc(O)c5c4C2(CCN3C)[C@H]1O5` (some centres undefined), for which the 50% inhibitory concentration (IC50) worked out at 0.56 nM.
